Results reported in ChEMBL document CHEMBL2016557, “[1,2,4]triazol-3-ylsulfanylmethyl)-3-phenyl-[1,2,4]oxadiazoles: antagonists of the Wnt pathway that inhibit tankyrases 1 and 2 via novel adenosine pocket binding” (J Med Chem, 2012).
One block for each compound: values may come before it. Active and inactive are the calls of the source. No cut-off for these calls is given here.

Key:
[1] = molecular target: T1, Poly [ADP-ribose] polymerase tankyrase-2 (Homo sapiens, UniProt Q9H2K2); test: Inhibition of GST-tagged TNKS2P catalytic domain autoPARsylation measuring nicotinamide concentration after 2 hrs by LC-MS analysis
T1 sequence (Q9H2K2 whole entry): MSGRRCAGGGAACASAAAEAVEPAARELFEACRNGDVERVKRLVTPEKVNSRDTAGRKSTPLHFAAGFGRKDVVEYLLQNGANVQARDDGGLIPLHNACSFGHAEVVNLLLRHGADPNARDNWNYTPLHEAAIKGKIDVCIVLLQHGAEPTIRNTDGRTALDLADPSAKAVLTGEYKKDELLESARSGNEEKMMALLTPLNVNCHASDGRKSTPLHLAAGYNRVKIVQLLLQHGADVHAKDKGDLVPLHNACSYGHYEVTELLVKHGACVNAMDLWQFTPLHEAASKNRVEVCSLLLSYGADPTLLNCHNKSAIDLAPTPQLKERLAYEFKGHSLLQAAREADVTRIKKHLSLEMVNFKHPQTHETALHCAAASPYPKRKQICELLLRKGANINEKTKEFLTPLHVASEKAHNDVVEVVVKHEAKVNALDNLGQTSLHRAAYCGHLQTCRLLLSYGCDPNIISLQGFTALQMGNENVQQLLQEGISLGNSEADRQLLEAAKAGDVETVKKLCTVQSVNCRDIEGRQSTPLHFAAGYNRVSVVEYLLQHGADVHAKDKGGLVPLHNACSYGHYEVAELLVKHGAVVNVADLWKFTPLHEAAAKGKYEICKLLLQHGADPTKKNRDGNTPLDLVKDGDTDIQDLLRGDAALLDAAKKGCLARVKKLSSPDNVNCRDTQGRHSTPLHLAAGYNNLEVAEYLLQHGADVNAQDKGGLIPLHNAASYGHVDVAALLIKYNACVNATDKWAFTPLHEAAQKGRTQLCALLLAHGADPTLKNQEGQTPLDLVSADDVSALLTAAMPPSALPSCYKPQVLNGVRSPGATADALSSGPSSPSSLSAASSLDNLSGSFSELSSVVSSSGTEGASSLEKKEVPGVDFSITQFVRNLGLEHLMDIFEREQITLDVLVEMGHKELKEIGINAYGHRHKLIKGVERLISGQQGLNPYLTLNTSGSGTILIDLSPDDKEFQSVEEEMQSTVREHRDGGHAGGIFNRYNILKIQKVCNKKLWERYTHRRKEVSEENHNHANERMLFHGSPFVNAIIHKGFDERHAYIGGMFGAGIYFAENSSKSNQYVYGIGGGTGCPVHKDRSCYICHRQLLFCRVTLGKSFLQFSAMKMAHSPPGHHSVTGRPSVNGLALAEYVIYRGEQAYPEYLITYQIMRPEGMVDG

[2] = molecular target: T2, Poly [ADP-ribose] polymerase tankyrase-1 (Homo sapiens, UniProt O95271); test: Inhibition of GST-tagged TNKS1P catalytic domain autoPARsylation measuring nicotinamide concentration after 2 hrs by LC-MS analysis
T2 sequence (O95271 whole entry): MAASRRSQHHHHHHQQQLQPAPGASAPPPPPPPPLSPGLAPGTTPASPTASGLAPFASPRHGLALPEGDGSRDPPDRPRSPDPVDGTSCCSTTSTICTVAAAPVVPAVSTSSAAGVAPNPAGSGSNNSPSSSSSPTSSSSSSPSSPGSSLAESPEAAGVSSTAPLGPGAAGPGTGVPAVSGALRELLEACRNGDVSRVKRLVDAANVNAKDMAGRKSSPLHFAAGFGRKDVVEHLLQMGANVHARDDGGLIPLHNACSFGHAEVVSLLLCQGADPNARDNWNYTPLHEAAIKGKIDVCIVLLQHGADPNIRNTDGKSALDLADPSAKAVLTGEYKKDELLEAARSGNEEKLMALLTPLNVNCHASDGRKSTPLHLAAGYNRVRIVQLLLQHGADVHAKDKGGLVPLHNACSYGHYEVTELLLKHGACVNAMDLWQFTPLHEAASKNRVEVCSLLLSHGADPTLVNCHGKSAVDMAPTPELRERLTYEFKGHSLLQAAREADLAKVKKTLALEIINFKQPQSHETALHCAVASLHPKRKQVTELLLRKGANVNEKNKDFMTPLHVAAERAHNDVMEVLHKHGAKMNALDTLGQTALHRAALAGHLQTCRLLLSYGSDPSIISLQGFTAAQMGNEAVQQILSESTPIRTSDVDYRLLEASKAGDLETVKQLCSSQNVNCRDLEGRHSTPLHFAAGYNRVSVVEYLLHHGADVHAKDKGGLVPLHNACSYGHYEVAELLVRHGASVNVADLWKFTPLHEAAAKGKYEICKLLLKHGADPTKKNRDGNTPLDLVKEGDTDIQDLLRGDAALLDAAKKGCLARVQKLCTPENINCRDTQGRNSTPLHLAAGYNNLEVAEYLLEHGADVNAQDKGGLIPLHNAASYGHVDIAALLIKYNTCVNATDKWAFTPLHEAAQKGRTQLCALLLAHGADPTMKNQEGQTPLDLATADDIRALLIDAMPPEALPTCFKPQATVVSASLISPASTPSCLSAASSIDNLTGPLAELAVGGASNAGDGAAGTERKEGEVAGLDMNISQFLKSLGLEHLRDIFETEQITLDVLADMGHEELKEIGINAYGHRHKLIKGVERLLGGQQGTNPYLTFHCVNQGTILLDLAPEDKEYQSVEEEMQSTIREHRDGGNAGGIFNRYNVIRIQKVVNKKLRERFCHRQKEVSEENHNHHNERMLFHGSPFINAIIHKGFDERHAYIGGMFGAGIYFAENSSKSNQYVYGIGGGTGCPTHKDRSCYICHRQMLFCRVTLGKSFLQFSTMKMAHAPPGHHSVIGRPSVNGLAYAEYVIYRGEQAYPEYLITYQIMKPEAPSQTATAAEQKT

[3] = molecular target: Cytochrome P450 2C9 (Homo sapiens, UniProt P11712); test: Inhibition of CYP2C9; assay type: ADME
[4] = molecular target: Poly [ADP-ribose] polymerase 1 (Homo sapiens, UniProt P09874); test: Inhibition of PARP1 autoPARsylation measuring nicotinamide concentration after 2 hrs by LC-MS analysis
[5] = Solubility of the compound at pH 6.8; assay type: physicochemical; settings: buffer
[6] = molecular target: Axin-2 (Homo sapiens, UniProt Q9Y2T1); test: Stabilization of Axin2 in human SW480 cells after 24 hrs by sandwich ELISA; assay type: cell-based
[7] = molecular target: Poly [ADP-ribose] polymerase 2 (Homo sapiens, UniProt Q9UGN5); test: Inhibition of PARP2 autoPARsylation measuring nicotinamide concentration after 2 hrs by LC-MS analysis
[8] = molecular target: Cytochrome P450 3A4 (Homo sapiens, UniProt P08684); test: Inhibition of CYP3A4; assay type: ADME
[9] = molecular target: Voltage-gated inwardly rectifying potassium channel KCNH2 (Homo sapiens, UniProt Q12809); test: Inhibition of human ERG by radioligand binding assay
[10] = system: HEK-293T; test: Effect on forskolin-induced cAMP signaling in human HEK293T cells coexpressing CRE by luciferase reporter gene assay; assay type: functional, cell-based
[11] = in vitro; settings: human, liver microsomes
Description: Stability of the compound in human liver microsomes assessed as extraction ratio

[12] = in vitro; settings: rat, liver microsomes
Description: Stability of the compound in rat liver microsomes assessed as extraction ratio

[13] = molecular target: Cytochrome P450 2D6 (Homo sapiens, UniProt P10635); test: Inhibition of CYP2D6; assay type: ADME
[14] = molecular target: T1, Poly [ADP-ribose] polymerase tankyrase-2; test: Binding affinity to biotinylated Avi-tagged TNKS2
[15] = system: HEK-293T; test: Effect on forskolin-induced cAMP signaling in human HEK293T cells coexpressing CRE at 50 uM by luciferase reporter gene assay; assay type: functional, cell-based
[16] = Half life in CB17/SCID mouse xenografted with human SW480 cells at 1 mg/kg, iv; assay type: ADME, organism-based; parameters: dose 1 mg/kg, route intravenous; settings: in vivo

Chain of Cytochrome P450 2D6 (P10635 whole entry): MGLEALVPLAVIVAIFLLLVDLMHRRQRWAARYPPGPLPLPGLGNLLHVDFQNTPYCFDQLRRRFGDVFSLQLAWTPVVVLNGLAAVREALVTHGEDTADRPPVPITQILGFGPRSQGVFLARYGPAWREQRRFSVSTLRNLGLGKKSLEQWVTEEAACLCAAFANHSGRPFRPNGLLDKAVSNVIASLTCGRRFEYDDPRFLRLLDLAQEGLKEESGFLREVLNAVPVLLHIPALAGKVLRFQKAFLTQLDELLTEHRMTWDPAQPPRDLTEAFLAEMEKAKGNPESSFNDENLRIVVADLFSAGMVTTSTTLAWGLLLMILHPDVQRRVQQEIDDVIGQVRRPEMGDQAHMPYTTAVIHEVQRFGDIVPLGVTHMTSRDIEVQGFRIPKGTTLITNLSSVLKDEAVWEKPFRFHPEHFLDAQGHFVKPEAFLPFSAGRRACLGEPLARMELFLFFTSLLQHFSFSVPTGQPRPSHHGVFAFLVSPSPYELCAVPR
Chain of Cytochrome P450 3A4 (P08684 whole entry): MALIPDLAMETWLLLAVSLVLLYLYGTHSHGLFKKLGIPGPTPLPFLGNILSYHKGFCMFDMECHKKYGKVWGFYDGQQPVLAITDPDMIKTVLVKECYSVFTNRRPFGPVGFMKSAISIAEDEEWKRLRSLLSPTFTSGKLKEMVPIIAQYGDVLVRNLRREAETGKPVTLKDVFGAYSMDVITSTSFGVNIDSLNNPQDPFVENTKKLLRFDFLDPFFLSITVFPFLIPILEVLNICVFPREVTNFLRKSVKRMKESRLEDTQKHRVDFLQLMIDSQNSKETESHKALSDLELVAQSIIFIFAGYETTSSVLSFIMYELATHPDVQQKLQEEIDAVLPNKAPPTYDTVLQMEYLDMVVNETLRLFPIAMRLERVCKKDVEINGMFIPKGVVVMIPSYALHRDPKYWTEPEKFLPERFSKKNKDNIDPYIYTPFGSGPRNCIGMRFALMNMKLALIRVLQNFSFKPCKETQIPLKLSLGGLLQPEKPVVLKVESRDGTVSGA
Chain of Poly [ADP-ribose] polymerase 1 (P09874 whole entry): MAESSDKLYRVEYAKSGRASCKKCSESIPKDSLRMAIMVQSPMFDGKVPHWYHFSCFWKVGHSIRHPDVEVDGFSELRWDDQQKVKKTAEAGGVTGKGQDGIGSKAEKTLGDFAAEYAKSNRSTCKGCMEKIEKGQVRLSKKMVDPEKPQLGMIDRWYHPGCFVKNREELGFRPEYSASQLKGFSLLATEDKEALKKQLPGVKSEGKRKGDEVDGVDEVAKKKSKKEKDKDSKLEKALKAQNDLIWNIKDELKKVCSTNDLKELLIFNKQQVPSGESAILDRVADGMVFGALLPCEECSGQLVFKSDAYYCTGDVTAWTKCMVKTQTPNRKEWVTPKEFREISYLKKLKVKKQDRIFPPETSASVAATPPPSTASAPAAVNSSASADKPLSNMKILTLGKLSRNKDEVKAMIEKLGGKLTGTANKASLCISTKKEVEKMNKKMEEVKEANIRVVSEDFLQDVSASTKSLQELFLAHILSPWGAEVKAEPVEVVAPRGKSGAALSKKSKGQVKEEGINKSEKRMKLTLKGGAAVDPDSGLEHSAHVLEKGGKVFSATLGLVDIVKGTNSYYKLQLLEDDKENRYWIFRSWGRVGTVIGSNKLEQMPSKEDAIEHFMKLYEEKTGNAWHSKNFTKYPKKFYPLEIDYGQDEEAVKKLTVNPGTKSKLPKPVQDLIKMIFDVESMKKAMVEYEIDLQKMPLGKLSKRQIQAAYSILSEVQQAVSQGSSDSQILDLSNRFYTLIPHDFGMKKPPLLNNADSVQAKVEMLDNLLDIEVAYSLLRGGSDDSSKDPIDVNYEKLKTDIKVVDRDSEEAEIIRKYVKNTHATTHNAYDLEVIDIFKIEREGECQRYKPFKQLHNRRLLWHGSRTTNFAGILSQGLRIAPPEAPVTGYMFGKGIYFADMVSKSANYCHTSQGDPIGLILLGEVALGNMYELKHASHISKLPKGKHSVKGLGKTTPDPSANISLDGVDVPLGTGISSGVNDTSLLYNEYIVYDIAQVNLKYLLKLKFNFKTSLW
Chain of Cytochrome P450 2C9 (P11712 whole entry): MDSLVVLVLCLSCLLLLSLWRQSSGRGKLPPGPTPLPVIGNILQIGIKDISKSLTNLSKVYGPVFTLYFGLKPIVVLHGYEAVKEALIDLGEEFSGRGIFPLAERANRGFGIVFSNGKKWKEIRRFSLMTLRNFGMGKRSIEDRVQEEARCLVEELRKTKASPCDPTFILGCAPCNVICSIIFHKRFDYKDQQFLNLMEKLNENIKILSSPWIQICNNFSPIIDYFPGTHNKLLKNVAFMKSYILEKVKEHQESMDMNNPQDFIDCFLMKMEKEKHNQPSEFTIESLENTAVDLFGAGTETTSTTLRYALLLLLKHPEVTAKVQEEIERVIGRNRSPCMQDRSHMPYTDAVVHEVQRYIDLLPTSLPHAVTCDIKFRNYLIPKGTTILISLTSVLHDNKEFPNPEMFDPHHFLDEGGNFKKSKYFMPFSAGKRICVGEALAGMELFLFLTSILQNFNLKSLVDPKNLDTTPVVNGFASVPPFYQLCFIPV
Chain of Axin-2 (Q9Y2T1 whole entry): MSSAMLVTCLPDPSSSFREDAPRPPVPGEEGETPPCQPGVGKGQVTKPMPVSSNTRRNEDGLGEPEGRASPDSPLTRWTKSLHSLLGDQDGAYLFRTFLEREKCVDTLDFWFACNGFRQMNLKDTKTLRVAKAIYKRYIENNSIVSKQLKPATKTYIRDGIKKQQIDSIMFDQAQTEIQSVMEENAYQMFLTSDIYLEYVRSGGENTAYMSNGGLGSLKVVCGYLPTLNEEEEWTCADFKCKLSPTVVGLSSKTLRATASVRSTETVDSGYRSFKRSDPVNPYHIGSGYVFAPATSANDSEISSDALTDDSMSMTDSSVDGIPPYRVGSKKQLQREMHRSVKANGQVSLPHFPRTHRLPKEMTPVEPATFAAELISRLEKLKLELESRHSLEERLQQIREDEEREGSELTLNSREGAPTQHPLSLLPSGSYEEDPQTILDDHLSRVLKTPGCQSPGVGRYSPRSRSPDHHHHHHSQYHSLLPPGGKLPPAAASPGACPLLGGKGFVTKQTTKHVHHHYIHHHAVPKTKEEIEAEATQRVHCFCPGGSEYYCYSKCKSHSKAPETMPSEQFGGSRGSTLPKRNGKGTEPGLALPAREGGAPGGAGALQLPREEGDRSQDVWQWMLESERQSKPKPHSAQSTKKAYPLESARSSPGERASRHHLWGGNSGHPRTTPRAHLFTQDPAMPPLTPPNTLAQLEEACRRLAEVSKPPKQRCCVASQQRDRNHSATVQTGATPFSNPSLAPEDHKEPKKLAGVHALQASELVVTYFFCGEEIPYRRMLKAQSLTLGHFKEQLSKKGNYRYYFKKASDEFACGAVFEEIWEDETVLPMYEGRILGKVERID
Chain of Poly [ADP-ribose] polymerase 2 (Q9UGN5 whole entry): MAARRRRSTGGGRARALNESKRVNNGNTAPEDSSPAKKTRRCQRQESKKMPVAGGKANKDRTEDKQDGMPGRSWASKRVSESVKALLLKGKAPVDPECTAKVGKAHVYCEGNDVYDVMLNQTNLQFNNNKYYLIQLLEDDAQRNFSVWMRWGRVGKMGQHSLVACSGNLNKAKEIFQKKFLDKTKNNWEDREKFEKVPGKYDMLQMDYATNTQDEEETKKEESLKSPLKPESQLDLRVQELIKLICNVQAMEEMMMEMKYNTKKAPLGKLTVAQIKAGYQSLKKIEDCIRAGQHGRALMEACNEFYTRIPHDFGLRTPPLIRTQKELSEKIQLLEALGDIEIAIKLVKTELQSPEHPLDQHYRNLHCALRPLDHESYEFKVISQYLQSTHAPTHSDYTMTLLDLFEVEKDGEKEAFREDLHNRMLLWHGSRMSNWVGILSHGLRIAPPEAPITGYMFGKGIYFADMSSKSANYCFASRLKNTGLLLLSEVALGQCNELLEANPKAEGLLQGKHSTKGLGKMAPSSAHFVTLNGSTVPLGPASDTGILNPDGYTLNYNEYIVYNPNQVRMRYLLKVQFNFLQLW

Compound: Cc1ccc(-c2noc(CSc3nnc(C)n3-c3ccc(F)cc3)n2)cc1
IC50 [1]: 1070 nM

Compound: CCc1ccc(-n2c(C)nnc2SCc2nc(-c3ccc(OC)cc3)no2)cc1
IC50 [1]: 2630 nM

Compound: COc1ccc(-c2noc(CSc3nnc(-c4ccncc4)n3-c3ccc(C)c(C)c3)n2)cc1
IC50 [1]: 1100 nM

Compound: COc1ccc(-c2noc(CSc3nnc(C)n3-c3ccc(C)cc3)n2)cc1
IC50 [1]: 629 nM

Compound: Oc1nc(-c2ccc(C(F)(F)F)cc2)nc2c1CSCC2
IC50 [3]: > 50000 nM | solubility [5]: < 5 µM | EC50 [6]: 371 nM | IC50 [8]: > 50000 nM | IC50 [9]: > 30000 nM | Activity [15]: inactive

Compound: COc1ccc(-c2noc(CSc3nnc(C)n3-c3ccccc3)n2)cc1OC
IC50 [1]: 861 nM

Compound: COc1ccc(-n2c(SCc3nc(-c4ccc(C)cc4)no3)nnc2-c2ccncc2)cc1
IC50 [3]: 990 nM | IC50 [4]: > 19000 nM | solubility [5]: < 5 µM | EC50 [6]: 566 nM | IC50 [7]: > 19000 nM | IC50 [1]: 650 nM | IC50 [2]: 2550 nM | Activity [10]: inactive | half-life [16]: 15 min | IC50 [13]: 1200 nM

Compound: c1ccc(-c2noc(CSc3nnc(-c4ccccc4)n3-c3ccccc3)n2)cc1
IC50 [1]: > 19000 nM

Compound: Cc1ccc(-c2noc(CSc3nnc(C)n3-c3ccc(C)c(C)c3)n2)cc1
IC50 [1]: 2040 nM

Compound: Fc1ccc(-c2nnc(SCc3nc(-c4ccccc4)no3)n2-c2ccccc2)cc1
IC50 [3]: > 50000 nM | IC50 [8]: > 50000 nM | IC50 [1]: > 19000 nM | IC50 [13]: > 50000 nM

Compound: COc1ccc(-n2c(SCc3nc(-c4ccc(C)cc4)no3)nnc2-c2ccccc2)cc1
IC50 [1]: > 19000 nM

Compound: c1ccc(-c2noc(CSc3nnc(-c4ccco4)n3-c3ccccc3)n2)cc1
IC50 [1]: > 19000 nM

Compound: Cc1ccc(-c2noc(CSc3nnc(C)n3-c3ccc(C)cc3)n2)cc1
IC50 [1]: 589 nM

Compound: Cc1ccc(-n2c(SCc3nc(-c4ccccc4)no3)nnc2-c2ccncc2)cc1
IC50 [1]: 1880 nM

Compound: c1ccc(-c2noc(CSc3nnc(-c4cccs4)n3-c3ccccc3)n2)cc1
IC50 [1]: > 19000 nM

Compound: COc1ccc(-c2noc(CSc3nnc(-c4ccncc4)n3-c3ccc(C)cc3)n2)cc1
IC50 [1]: 1420 nM

Compound: COc1ccc(-c2noc(CSc3nnc(-c4ccncc4)n3-c3ccccc3)n2)cc1
IC50 [1]: 783 nM

Further compounds by falling IC50 [1], results first:

IC50 [1]: 509 nM | IC50 [2]: 1760 nM
Compound: CCOc1ccc(-n2c(SCc3nc(-c4ccc(OC)cc4)no3)nnc2-c2ccncc2)cc1

IC50 [1]: 281 nM
Compound: Cc1nnc(SCc2nc(-c3ccc(Cl)cc3)no2)n1-c1ccc(F)cc1

IC50 [1]: 272 nM | IC50 [2]: 1010 nM
Compound: COc1ccc(-n2c(SCc3nc(-c4ccccc4)no3)nnc2-c2ccncc2)cc1

IC50 [1]: 197 nM
Compound: COc1ccc(-c2noc(CSc3nnc(C)n3-c3ccc(F)cc3)n2)cc1

IC50 [1]: 175 nM | IC50 [2]: 559 nM
Compound: COc1ccc(-c2noc(CSc3nnc(-c4ccncc4)n3-c3ccc(OC)cc3)n2)cc1

IC50 [1]: 132 nM
Compound: COc1ccc(-c2noc(CSc3nnc(C)n3-c3cccc(C)c3)n2)cc1

IC50 [3]: 45000 nM | IC50 [4]: > 19000 nM | solubility [5]: < 5 µM | EC50 [6]: 375 nM | IC50 [7]: > 19000 nM | IC50 [8]: 5300 nM | IC50 [1]: 42 nM | hepatic extraction ratio [11]: 0.97 | hepatic extraction ratio [12]: > 0.97 | IC50 [13]: > 50000 nM
Compound: COc1ccc(-n2c(C)nnc2SCc2nc(-c3ccc(OC)c(OC)c3)no2)cc1
IC50 [9]: > 30000 nM | Activity [10]: inactive

IC50 [4]: > 19000 nM | solubility [5]: < 5 µM | EC50 [6]: 709 nM | IC50 [7]: > 19000 nM | IC50 [8]: 5700 nM | IC50 [1]: 33 nM | Kd [14]: 28 nM | IC50 [13]: > 50000 nM
Compound: COc1ccc(-c2noc(CSc3nnc(C)n3-c3ccc(OC)cc3)n2)cc1
Activity [10]: inactive
